Assay results from patent US10501481B2, “Heterocyclic compounds and their use in preventing or treating bacterial infections” (priority 2015, dated 2019).

How the values were obtained:
[1] = test system: E. coli UFR61O (TEM-1, KPC-2); test: MIC broth microdilution, alone and synergy with ceftazidime; conditions: for MIC of CAZ in combination with compound at 4 μg/mL: strain UFR61O, compound fixed at 4 μg/mL; for MIC: Escherichia coli, read-out: MIC compounds of the invention alone
[2] = test system: C. murliniae 210102 (VIM-4); test: as above; conditions: for MIC: read-out: MIC compounds of the invention alone; for MIC of CAZ in combination with compound at 4 μg/mL: strain 210102, compound fixed at 4 μg/mL
[3] = test system: E. coli UFR74 (SHV-1, DHA-1); test: as above; conditions: for MIC of CAZ in combination with compound at 4 μg/mL: strain UFR74, compound fixed at 4 μg/mL; for MIC: Escherichia coli, read-out: MIC compounds of the invention alone
[4] = test system: P. aeruginosa UFR92 (derepressed AmpC, OprD−); test: as above; conditions: strain UFR92; compound fixed at 4 μg/mL
[5] = biological target: T1, KPC-2 (Klebsiella pneumoniae, UniProt Q9F663); test: β-lactamase inhibitory activity, nitrocefin hydrolysis; format: biochemical
T1 construct: made in house; host or cells: E. coli
T1 sequence (Q9F663 25-293 limits assumed): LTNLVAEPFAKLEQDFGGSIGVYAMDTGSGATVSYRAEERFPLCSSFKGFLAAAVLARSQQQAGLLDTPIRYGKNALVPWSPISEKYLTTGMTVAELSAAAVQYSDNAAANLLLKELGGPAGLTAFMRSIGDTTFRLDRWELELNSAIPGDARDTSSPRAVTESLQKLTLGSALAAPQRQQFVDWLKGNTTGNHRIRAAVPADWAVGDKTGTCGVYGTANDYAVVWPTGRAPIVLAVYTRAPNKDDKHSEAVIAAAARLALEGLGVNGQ
Method: (§1) Enzyme activity was monitored by spectrophotometric measurement of nitrocefin (NCF-TOKU-E, N005) hydrolysis at 485 nm, at room temperature and in assay buffer A: 100 mM Phosphate pH7, 2% glycerol and 0.1 mg/mL Bovine serum albumin (Sigma, B4287). […] To a transparent polystyrene plate (Corning, 3628) were added in each well 5 μL DMSO or inhibitor dilutions in DMSO and 80 μL enzyme in buffer A. Plates were immediately read at 485 nm in a microplate spectrophotometer (BioTek, PowerWave HT) to enable background subtraction. After 30 min of pre-incubation at room temperature, 15 μL of NCF (200 μM final) were finally added in each well. Final enzyme concentrations were 0.1 nM (TEM-1), 0.075 nM (SHV-1), 0.4 nM (CTX-M-15), 1 nM (KPC-2), 0.2 nM (P99 AmpC), 0.2 nM (CMY-37), 0.4 nM (AmpC P. aeruginosa), 0.2 nM (OXA-1), 1.2 nM (OXA-11), 0.4 nM (OXA-15) and 0.3 nM (OXA-48). After 20 min incubation at room temperature, plates were once again read at 485 nm. Enzyme activity was obtained by subtracting the final signal by the background, and was converted to enzyme inhibition using non inhibited wells. IC50 curves were fitted to a classical Langmuir equilibrium model with Hill slope using XLFIT (IDBS).

[6] = biological target: T2, OXA-11 (Pseudomonas aeruginosa, UniProt Q06778); test: as above; format: biochemical
T2 construct: made in house; host or cells: E. coli
T2 sequence (Q06778 21-266): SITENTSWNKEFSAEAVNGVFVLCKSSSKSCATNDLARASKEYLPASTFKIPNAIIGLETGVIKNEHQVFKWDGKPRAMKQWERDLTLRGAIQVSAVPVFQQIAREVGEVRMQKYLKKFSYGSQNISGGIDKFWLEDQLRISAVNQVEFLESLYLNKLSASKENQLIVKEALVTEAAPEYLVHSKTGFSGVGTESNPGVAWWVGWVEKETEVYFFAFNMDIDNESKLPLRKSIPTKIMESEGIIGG
Method: as §1

[7] = test system: K. pneumoniae 160143 (TEM-1, SHV-1, CTX-M-15, KPC-2, OXA-1); test: MIC broth microdilution, alone and synergy with ceftazidime; conditions: for MIC of CAZ in combination with compound at 4 μg/mL: strain 160143, compound fixed at 4 μg/mL; for MIC: Klebsiella pneumoniae, read-out: MIC compounds of the invention alone
[8] = biological target: T3, CTX-M-15 (Escherichia coli, UniProt Q9EXV5); test: β-lactamase inhibitory activity, nitrocefin hydrolysis; format: biochemical
T3 construct: made in house; host or cells: E. coli
T3 sequence (Q9EXV5 entry or part of it): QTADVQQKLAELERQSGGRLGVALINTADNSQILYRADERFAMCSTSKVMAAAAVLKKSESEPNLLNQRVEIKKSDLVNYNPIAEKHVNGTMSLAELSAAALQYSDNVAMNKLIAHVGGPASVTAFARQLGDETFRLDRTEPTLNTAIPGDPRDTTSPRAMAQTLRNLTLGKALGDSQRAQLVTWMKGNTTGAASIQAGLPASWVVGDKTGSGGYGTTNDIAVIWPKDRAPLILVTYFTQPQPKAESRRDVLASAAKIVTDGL
Method: as §1

[9] = test system: P. aeruginosa UFR90 (derepressed AmpC, OprD−); test: MIC broth microdilution, alone and synergy with ceftazidime; conditions: strain UFR90; compound fixed at 4 μg/mL
[10] = test system: K. pneumoniae UFR77 (CMY-2); test: as above; conditions: for MIC: Klebsiella pneumoniae, read-out: MIC compounds of the invention alone; for MIC of CAZ in combination with compound at 4 μg/mL: strain UFR77, compound fixed at 4 μg/mL
[11] = test system: E. coli 131119 (TEM-1, OXA-48); test: as above; conditions: for MIC: Escherichia coli, read-out: MIC compounds of the invention alone; for MIC of CAZ in combination with compound at 4 μg/mL: strain 131119, compound fixed at 4 μg/mL
[12] = test system: P. aeruginosa UFR35 (OXA-23); test: as above; conditions: for MIC of CAZ in combination with compound at 4 μg/mL: strain UFR35, compound fixed at 4 μg/mL
[13] = test system: E. cloacae P99 (AmpC); test: as above; conditions: for MIC: Enterobacter cloacae, read-out: MIC compounds of the invention alone; for MIC of CAZ in combination with compound at 4 μg/mL: strain P99, compound fixed at 4 μg/mL
[14] = test system: E. cloacae 260508 (TEM-1, CTX-M-15); test: as above; conditions: for MIC: Enterobacter cloacae, read-out: MIC compounds of the invention alone; for MIC of CAZ in combination with compound at 4 μg/mL: strain 260508, compound fixed at 4 μg/mL
[15] = biological target: T4, SHV-1 (Klebsiella pneumoniae, UniProt P0AD64); test: β-lactamase inhibitory activity, nitrocefin hydrolysis; format: biochemical
T4 construct: made in house; host or cells: E. coli
T4 sequence (P0AD64 22-286): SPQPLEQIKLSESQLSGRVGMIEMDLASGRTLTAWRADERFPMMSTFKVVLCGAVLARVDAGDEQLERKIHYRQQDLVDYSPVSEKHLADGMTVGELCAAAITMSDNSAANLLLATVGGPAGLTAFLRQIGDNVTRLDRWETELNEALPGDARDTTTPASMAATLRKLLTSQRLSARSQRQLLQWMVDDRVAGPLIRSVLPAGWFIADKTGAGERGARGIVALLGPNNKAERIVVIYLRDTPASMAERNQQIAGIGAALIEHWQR
Method: as §1

[16] = test system: P. aeruginosa UFR59 (IMP-29); test: MIC broth microdilution, compounds alone; conditions: Pseudomonas aeruginosa, read-out: MIC compounds of the invention alone
[17] = test system: P. aeruginosa UFR48 (VIM-2); test: MIC broth microdilution, compounds alone; conditions: Pseudomonas aeruginosa, read-out: MIC compounds of the invention alone
[18] = test system: P. aeruginosa UFR47 (VIM-1); test: MIC broth microdilution, compounds alone; conditions: Pseudomonas aeruginosa, read-out: MIC compounds of the invention alone

Compound | MIC of CAZ in combination with compound at 4 μg/mL [1] | MIC [2] | MIC of CAZ in combination with compound at 4 μg/mL [2] | MIC of CAZ in combination with compound at 4 μg/mL [3] | MIC of CAZ in combination with compound at 4 μg/mL [4] | IC50 [5] | IC50 [6] | MIC of CAZ in combination with compound at 4 μg/mL [7] | IC50 [8] | MIC of CAZ in combination with compound at 4 μg/mL [9] | MIC [10] | MIC of CAZ in combination with compound at 4 μg/mL [10] | MIC [11] | MIC of CAZ in combination with compound at 4 μg/mL [11] | MIC [13] | MIC of CAZ in combination with compound at 4 μg/mL [13] | MIC [14] | MIC of CAZ in combination with compound at 4 μg/mL [14] | IC50 [15] | MIC [3] | further results
Cn1c2c(sc1=O)C1CN(C2)C(=O)N1OS(=O)(=O)[O-].[Na+] (centres unmarked) [Example 1, Sodium (5-methyl-4,9-dioxo-3-thia-5,8,10-triaza-tricyclo[6.2.1.0^2.6]undec-2(6)-en-10-yl) sulfate] | <0.25 µg/mL | 32 µg/mL | >128 µg/mL | <0.25 µg/mL | 32 µg/mL | 3.3 nM | 40 nM | 0.5 µg/mL | 0.69 nM | 64 µg/mL | 8 µg/mL | ≤0.25 µg/mL | 1 µg/mL | <0.25 µg/mL | 8 µg/mL | 0.5 µg/mL | 4 µg/mL | <0.25 µg/mL | 12 nM |  | MIC of CAZ in combination with compound at 4 μg/mL [12]: 4 µg/mL
COC(=O)Cn1c2c(sc1=O)C1CN(C2)C(=O)N1OS(=O)(=O)[O-].[Na+] (centres unmarked) [Example 2, Sodium [5-(2-methoxy-2-oxo-ethyl)-4,9-dioxo-3-thia-5,8,10-triaza-tricyclo[6.2.1.0^2.6]undec-2(6)-en-10-yl] sulfate] | <0.25 µg/mL | 16 µg/mL |  | 1 µg/mL |  | 1.3 nM | 4.1 nM | 8 µg/mL | 1.1 nM |  | 4 µg/mL | 0.25 µg/mL | 2 µg/mL | <0.25 µg/mL | 16 µg/mL | 4 µg/mL | 4 µg/mL | <0.25 µg/mL | 1.3 nM | 8 µg/mL | MIC [1]: 8 µg/mL; MIC [7]: 16 µg/mL
NCCn1c2c(sc1=O)C1CN(C2)C(=O)N1OS(=O)(=O)[O-].[Na+] (centres unmarked) [Example 4, Sodium and 2,2,2-trifluoroacetate [5-(2-azaniumethyl)-4,9-dioxo-3-thia-5,8,10-triaza-tricyclo[6.2.1.0^2.6]undec-2(6)-en-10-yl] sulfate] | <0.25 µg/mL | 4 µg/mL | <0.25 µg/mL | ≤0.25 µg/mL | ≤0.25 µg/mL | 7.4 nM | 82 nM | ≤0.25 µg/mL | 1.3 nM | 1 µg/mL | 16 µg/mL | ≤0.25 µg/mL | 2 µg/mL | <0.25 µg/mL | 0.5 µg/mL | <0.25 µg/mL | 8 µg/mL | <0.25 µg/mL | 21 nM | 16 µg/mL | MIC [16]: 8 µg/mL; MIC [17]: 8 µg/mL; MIC [1]: 4 µg/mL; MIC ([12]; Pseudomonas aeruginosa, read-out: MIC compounds of the invention alone): 8 µg/mL; MIC of CAZ in combination with compound at 4 μg/mL [12]: 2 µg/mL; MIC [18]: 16 µg/mL
O=C1N2Cc3c(sc(=O)n3CCO)C(C2)N1OS(=O)(=O)[O-].[Na+] (centres unmarked) [Example 5, Sodium [5-(2-hydroxyethyl)-4,9-dioxo-3-thia-5,8,10-triaza-tricyclo[6.2.1.0^2.6]undec-2(6)-en-10-yl) sulfate] | <0.25 µg/mL | 8 µg/mL | 64 µg/mL | <0.25 µg/mL |  | 1.7 nM | 31 nM | <0.25 µg/mL | 0.68 nM |  | 4 µg/mL | <0.25 µg/mL |  | <0.25 µg/mL | 8 µg/mL | 0.25 µg/mL | 4 µg/mL | <0.25 µg/mL | 6 nM | 4 µg/mL | MIC [7]: 8 µg/mL
